# Laboratory results as given in patent US20220080056A1, “DENDRIMER COMPOSITIONS AND USE IN TREATMENT OF NECROTIZING ENTEROCOLITIS AND OTHER GASTROINTESTINAL DISORDERS” (The Johns Hopkins University, priority 2015, published 2022).
# How the values were obtained:
# [1] = target: T1, TLR4 co-receptor MD-2 (Homo sapiens, UniProt Q9Y6Y9); settings: cited from earlier work
# T1 sequence (Q9Y6Y9 19-160): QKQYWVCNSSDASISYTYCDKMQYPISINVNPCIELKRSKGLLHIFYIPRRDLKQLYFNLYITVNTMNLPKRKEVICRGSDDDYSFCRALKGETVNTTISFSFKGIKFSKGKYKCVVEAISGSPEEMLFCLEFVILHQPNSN
# [2] = test system: TLR4; settings: enterocytes and macrophages in vitro; cited from earlier work
# [3] = test system: systemic inflammation; settings: mouse models of endotoxemia and necrotizing enterocolitis; cited from earlier work
# [4] = test system: LPS signaling; settings: human ileum resected from infants with NEC; cited from earlier work
# [5] = test system: microglial cells; experiment: GSH depletion, ROS, H2O2 and NO/nitrite production; assay type: cell-based; settings: highest concentration (5 mM)
# Description: (§1) Treatment with G4-PAMAM-S--S-NAC dendrimer complexes reduced white matter injury and microglia activation. […] This activity of the dendrimer-NAC conjugates may be attributed to its ability to interfere with the early inflammatory responses by blocking or modifying the signal transduction factor NF-.kappa.B and nitrotyrosine, thereby modulating cellular activation. 6 and 8 arm PEG-NAC conjugates released 74% of NAC in the intracellular GSH concentration (2 and 10 mM), within 2 hours. At a concentration range of between 0.008-0.8 mM, the conjugates were nontoxic to the microglial cells. […] At the highest concentration (5 mM), the free drug reduced the H2O2 levels and nitrite levels by 30-40%, whereas the conjugates reduced the H2O2 and nitrite levels by more than 70%. […] PEGylated NAC is a dendrimer complex with utility for the pharmaceutical industry, as PEGs are approved for human use and this device addresses limitations of NAC and provides greater efficacy.
# [6] = free drug; cited from earlier work
# [7] = test system: LPS-induced brain injury; experiment: LPS-induced brain injury in a neonatal rabbit model of cerebral palsy; assay type: in vivo
# Description: The therapeutic efficacy of G4-PAMAM-S--S-NAC dendrimer conjugate was evaluated after two days of animal treatment with lipopolysaccharide (LPS) to induce white matter injury and hypomyelination in the developing rabbit brain (an animal model of Cerebral Palsy). […] This supports a conclusion that the G4-PAMAM-S--S-NAC traversed across the BBB. The targeted delivery of NAC from dendrimer complex to actived microglial cells improved the motor deficits and attenuated recovery from the LPS-induced brain injury in a neonatal rabbit model of cerebral palsy.
# as §1
# [8] = test system: TLR4-mediated inflammatory signaling; settings: SAR study of C34 analogs; cited from earlier work
# [9] = compared to kits treated with saline
smiles,measurement,setting,value
CC(=O)N[C@H]1[C@@H](OC(C)C)O[C@H](COC(C)=O)[C@@H](OC(C)=O)[C@@H]1OC(C)=O [C34],docking fit to hydrophobic internal pocket of MD-2,[1],tight fit
same,TLR4 inhibition,[2],inhibits
same,systemic inflammation,[3],reduces
same,LPS signaling ex-vivo,[4],inhibited
"CC(=O)N[C@@H](CS)C(=O)O [NAC, N-acetyl cysteine]",reduction of H2O2 levels,[5],30-40%
same,reduction of nitrite levels,[5],30-40%
same,bioavailability,[6],low
same,plasma protein binding,[6],very high
same,dose eliciting identical responses,[7]; LPS-induced brain injury,100 mg/kg
same,fetal inflammation response,[7]; [9],decrease
same,motor deficits,[7]; [9],improvement
"CC(=O)N[C@H]1[C@@H](OC(C)C)O[C@H](CO)[C@H](O)[C@@H]1O [compound 17, isopropyl 2-acetamido-α-galactoside]",efficacy relative to C34 series,[8],more efficacious
